{"source": "paper PMC9927415", "about": "“Tyrosine Kinase Inhibitors Display Potent Activity against Cryptosporidium parvum” (Microbiology Spectrum, 2022)", "assay_in_all_cases": "KINOMEscan competitive binding", "key": {"CLK1": {"molecular_target": "T1, CLK1 (Homo sapiens, UniProt P49759)", "T1 construct": "purchased DiscoverX (KINOMEscan)", "T1 sequence (P49759 whole entry, the tested form may be a part)": "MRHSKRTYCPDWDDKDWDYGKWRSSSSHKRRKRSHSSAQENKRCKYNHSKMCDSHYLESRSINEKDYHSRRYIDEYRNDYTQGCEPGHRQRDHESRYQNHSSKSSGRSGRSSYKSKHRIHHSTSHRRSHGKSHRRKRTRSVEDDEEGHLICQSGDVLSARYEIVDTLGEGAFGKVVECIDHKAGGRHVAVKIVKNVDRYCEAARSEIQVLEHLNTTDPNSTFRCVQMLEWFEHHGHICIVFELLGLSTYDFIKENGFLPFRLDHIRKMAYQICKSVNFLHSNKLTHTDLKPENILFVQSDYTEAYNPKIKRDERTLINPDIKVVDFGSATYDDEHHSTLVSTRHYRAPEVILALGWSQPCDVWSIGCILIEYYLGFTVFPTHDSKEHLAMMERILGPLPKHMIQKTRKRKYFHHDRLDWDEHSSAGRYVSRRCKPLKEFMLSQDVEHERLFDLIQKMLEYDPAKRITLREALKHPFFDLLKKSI", "in_short": "(§1)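 Kinases were expressed as T7 bacteriophage fusions, and test compounds competed with immobilized ATP-site probe ligands for binding. Kinase remaining bound to the solid-support probe was quantified, and values are given as percentage inhibition.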"}, "CSNK1G1": {"molecular_target": "T2, CSNK1G1 (Homo sapiens, UniProt Q9HCP0)", "T2 construct": "purchased DiscoverX (KINOMEscan)", "T2 sequence (Q9HCP0 whole entry)": "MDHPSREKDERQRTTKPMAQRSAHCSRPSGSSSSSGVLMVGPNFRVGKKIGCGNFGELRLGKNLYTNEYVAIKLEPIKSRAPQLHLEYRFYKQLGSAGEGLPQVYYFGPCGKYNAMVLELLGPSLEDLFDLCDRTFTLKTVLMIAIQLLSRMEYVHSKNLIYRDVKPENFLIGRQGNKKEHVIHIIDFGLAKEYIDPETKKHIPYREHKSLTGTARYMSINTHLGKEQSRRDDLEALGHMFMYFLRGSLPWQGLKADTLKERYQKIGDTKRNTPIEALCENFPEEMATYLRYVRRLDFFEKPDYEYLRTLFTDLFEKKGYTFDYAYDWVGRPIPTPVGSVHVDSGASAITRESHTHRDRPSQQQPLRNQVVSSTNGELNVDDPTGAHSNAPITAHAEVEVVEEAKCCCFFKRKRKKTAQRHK", "in_short": "as §1"}, "FLT1": {"molecular_target": "T3, FLT1 (Homo sapiens, UniProt P17948)", "T3 construct": "purchased DiscoverX (KINOMEscan)", "details": "10 µM, n=1; kinase FLT1; read-out: Percent inhibition FLT1", "in_short": "as §1"}, "KIT": {"molecular_target": "T4, KIT (Homo sapiens, UniProt P10721)", "T4 construct": "purchased DiscoverX (KINOMEscan)", "T4 sequence (P10721 26-976)": "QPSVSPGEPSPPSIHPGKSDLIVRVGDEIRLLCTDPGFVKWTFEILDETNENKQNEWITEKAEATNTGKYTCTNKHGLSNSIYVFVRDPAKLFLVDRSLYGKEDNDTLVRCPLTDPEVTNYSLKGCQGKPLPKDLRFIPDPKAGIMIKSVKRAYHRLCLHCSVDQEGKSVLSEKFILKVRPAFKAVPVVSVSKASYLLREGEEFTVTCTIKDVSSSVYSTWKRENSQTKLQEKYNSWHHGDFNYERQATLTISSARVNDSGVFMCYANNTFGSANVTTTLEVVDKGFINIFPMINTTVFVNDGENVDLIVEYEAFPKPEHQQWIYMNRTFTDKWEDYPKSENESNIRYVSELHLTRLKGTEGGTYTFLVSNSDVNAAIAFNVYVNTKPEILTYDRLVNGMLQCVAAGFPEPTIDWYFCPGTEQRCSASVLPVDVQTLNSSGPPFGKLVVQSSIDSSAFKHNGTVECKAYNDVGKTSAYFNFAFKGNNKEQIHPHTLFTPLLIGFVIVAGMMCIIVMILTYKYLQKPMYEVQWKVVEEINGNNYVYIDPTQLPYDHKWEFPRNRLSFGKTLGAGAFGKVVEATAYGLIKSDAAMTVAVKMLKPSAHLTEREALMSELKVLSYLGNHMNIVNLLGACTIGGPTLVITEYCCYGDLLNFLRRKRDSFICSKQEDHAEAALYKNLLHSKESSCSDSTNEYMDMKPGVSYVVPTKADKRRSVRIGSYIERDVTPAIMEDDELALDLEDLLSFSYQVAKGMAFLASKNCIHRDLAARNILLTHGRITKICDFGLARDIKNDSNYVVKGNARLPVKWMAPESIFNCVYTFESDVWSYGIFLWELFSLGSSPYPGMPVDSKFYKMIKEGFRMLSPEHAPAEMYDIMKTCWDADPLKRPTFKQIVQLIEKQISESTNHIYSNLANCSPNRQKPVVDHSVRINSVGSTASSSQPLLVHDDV", "in_short": "as §1"}, "LKB1": {"molecular_target": "T5, LKB1 (Homo sapiens, UniProt Q15831)", "T5 construct": "purchased DiscoverX (KINOMEscan)", "T5 sequence (Q15831 1-433)": "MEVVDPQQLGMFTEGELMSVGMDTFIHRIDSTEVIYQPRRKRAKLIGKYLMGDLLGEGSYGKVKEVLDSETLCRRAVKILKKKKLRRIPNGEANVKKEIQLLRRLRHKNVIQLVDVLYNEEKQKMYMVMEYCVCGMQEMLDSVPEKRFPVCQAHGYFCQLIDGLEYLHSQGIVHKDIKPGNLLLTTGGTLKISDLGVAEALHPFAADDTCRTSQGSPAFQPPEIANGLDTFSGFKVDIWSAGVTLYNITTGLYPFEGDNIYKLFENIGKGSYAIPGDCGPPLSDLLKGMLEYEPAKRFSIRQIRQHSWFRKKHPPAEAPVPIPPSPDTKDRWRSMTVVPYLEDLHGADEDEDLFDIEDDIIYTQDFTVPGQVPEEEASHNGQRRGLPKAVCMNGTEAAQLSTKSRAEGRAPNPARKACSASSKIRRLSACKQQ", "details": "10 µM, n=1; kinase LKB1; read-out: Percent inhibition LKB1", "in_short": "as §1"}, "PHKG1": {"molecular_target": "T6, PHKG1 (Homo sapiens, UniProt Q16816)", "T6 construct": "purchased DiscoverX (KINOMEscan)", "T6 sequence (Q16816 whole entry)": "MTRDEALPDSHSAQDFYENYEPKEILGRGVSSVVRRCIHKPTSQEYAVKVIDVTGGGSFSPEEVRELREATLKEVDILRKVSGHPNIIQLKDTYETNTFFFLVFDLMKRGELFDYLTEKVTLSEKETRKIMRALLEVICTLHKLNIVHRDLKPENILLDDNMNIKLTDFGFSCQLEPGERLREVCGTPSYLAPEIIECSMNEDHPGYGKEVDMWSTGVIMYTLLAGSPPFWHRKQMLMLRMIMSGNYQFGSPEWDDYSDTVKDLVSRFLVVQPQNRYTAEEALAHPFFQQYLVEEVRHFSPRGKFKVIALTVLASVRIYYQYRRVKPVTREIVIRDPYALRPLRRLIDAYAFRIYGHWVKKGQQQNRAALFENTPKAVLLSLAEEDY", "details": "n=1, read-out: Percent inhibition, PHKG1"}, "PKAC-beta": {"molecular_target": "T7, PKAC-beta (Homo sapiens, UniProt P22694)", "T7 construct": "purchased DiscoverX (KINOMEscan)", "details": "n=1, read-out: Percent inhibition, PKAC-beta"}, "PLK3": {"molecular_target": "T8, PLK3 (Homo sapiens, UniProt Q9H4B4)", "T8 construct": "purchased DiscoverX (KINOMEscan)", "T8 sequence (Q9H4B4 whole entry)": "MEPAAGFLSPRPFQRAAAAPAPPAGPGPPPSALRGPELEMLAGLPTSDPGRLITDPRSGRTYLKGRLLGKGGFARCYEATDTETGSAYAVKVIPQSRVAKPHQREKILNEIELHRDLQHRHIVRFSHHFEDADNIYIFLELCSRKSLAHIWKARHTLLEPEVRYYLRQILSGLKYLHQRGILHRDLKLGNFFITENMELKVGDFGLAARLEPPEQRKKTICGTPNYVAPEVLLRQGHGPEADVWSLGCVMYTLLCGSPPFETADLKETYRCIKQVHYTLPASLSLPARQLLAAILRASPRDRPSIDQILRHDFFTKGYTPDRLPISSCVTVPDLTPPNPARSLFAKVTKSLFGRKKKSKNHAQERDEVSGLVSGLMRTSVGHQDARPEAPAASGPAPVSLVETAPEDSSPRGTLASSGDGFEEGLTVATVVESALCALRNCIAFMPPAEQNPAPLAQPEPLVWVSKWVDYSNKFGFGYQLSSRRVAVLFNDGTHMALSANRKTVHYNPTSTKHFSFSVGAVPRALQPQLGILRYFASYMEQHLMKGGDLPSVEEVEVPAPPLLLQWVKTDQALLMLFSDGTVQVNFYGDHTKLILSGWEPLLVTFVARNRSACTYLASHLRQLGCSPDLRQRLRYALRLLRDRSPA", "details": "n=1, read-out: Percent inhibition, PLK3"}, "PRKCH": {"molecular_target": "T9, PRKCH (Homo sapiens, UniProt P24723)", "T9 construct": "purchased DiscoverX (KINOMEscan)", "details": "n=1, read-out: Percent inhibition, PRKCH"}, "PRKG1": {"molecular_target": "T10, PRKG1 (Homo sapiens, UniProt Q13976)", "T10 construct": "purchased DiscoverX (KINOMEscan)", "T10 sequence (Q13976 1-671)": "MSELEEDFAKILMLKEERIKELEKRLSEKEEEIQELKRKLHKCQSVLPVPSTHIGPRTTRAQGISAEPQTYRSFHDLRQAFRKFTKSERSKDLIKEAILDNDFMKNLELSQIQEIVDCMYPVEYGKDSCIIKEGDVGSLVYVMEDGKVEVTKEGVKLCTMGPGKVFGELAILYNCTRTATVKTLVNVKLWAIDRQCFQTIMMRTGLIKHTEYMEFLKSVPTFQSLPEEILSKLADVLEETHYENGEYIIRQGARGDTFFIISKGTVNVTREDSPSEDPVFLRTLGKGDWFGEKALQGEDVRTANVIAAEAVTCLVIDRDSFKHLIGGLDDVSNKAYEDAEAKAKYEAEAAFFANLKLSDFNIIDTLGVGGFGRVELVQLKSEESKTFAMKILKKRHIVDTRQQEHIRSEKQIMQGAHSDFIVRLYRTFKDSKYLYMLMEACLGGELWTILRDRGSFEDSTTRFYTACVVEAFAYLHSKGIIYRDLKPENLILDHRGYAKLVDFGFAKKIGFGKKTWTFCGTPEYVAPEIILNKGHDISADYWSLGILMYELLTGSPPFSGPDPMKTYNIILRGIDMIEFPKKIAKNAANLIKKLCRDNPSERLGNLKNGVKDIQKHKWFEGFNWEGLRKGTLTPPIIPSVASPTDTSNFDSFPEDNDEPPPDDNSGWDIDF", "details": "n=1, read-out: Percent inhibition, PRKG1"}, "RIPK2": {"molecular_target": "T11, RIPK2 (Homo sapiens, UniProt O43353)", "T11 construct": "purchased DiscoverX (KINOMEscan)", "T11 sequence (O43353 whole entry)": "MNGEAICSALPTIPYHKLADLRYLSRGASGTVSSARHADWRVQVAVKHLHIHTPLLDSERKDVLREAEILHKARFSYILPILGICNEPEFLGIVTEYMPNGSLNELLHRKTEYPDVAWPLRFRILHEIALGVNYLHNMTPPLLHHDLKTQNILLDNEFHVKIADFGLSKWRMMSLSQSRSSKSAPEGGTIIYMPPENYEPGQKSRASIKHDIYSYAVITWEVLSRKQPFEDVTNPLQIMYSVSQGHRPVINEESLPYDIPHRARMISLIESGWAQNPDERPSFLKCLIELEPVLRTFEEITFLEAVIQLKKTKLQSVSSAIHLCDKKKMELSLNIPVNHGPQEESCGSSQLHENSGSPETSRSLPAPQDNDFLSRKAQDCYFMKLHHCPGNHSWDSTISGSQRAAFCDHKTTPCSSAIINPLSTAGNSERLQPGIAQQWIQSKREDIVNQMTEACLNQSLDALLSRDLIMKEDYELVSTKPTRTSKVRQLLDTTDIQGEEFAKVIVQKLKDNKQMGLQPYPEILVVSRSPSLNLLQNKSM", "details": "n=1, read-out: Percent inhibition, RIPK2"}, "RPS6KA3(Kin.Dom.1)": {"molecular_target": "T12, RPS6KA3(Kin.Dom.1) (Homo sapiens, UniProt P51812)", "T12 construct": "RPS6KA3(Kin.Dom.1); purchased DiscoverX (KINOMEscan)", "T12 sequence (P51812 1-397 limits assumed)": "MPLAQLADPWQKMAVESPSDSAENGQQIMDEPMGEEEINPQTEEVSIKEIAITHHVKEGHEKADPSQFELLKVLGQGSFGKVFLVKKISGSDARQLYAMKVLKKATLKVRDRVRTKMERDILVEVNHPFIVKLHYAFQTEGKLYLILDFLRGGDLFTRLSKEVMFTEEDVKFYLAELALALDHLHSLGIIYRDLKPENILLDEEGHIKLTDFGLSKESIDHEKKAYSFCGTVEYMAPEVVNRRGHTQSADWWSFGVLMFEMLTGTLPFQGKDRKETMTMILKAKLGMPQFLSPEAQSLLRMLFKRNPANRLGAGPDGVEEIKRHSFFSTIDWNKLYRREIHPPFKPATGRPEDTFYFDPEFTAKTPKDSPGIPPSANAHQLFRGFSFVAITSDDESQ", "details": "n=1, read-out: Percent inhibition, RPS6KA3(Kin.Dom.1)"}, "RPS6KA6(Kin.Dom.1)": {"molecular_target": "T13, RPS6KA6(Kin.Dom.1) (Homo sapiens, UniProt Q9UK32)", "T13 construct": "RPS6KA6(Kin.Dom.1); purchased DiscoverX (KINOMEscan)", "T13 sequence (Q9UK32 1-400 limits assumed)": "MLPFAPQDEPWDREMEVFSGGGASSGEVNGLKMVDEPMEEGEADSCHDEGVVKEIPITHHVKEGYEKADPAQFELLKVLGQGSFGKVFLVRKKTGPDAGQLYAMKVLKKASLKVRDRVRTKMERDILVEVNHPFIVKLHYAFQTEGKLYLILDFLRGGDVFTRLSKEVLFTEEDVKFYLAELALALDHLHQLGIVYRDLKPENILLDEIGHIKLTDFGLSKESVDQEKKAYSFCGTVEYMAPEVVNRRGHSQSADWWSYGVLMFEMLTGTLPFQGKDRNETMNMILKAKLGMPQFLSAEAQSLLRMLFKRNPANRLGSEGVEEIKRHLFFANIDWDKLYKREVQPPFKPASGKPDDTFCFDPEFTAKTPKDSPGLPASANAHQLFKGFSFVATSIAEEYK", "details": "n=1, read-out: Percent inhibition, RPS6KA6(Kin.Dom.1)"}, "SYK": {"molecular_target": "T14, SYK (Homo sapiens, UniProt P43405)", "T14 construct": "purchased DiscoverX (KINOMEscan)", "details": "n=1, read-out: Percent inhibition, SYK"}, "TRKB": {"molecular_target": "T15, TRKB (Homo sapiens, UniProt Q16620)", "T15 construct": "purchased DiscoverX (KINOMEscan)", "T15 sequence (Q16620 32-822)": "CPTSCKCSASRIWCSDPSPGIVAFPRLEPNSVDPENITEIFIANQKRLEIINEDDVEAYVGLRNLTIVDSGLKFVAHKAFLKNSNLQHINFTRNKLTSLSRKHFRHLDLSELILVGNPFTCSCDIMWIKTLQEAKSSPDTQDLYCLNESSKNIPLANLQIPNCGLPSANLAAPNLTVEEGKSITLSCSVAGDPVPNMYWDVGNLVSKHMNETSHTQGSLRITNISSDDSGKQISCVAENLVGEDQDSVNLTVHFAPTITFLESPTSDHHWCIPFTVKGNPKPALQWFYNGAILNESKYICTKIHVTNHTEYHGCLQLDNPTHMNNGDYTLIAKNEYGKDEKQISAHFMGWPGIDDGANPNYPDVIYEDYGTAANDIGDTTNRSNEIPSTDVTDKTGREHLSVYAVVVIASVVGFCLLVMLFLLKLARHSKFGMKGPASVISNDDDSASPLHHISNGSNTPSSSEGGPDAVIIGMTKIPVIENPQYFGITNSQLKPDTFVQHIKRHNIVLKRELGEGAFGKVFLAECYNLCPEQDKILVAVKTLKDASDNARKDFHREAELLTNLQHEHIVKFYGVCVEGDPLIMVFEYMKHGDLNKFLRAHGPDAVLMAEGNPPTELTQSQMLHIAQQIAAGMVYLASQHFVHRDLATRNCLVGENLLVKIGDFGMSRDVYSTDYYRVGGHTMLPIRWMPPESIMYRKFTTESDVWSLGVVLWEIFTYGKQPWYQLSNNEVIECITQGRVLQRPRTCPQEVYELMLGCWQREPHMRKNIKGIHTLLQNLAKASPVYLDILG", "details": "n=1, read-out: Percent inhibition, TRKB"}, "TYK2(Kin.Dom.2)": {"molecular_target": "T16, TYK2(Kin.Dom.2) (Homo sapiens, UniProt P29597)", "T16 construct": "TYK2(Kin.Dom.2); purchased DiscoverX (KINOMEscan)", "T16 sequence (P29597 889-1187 limits assumed)": "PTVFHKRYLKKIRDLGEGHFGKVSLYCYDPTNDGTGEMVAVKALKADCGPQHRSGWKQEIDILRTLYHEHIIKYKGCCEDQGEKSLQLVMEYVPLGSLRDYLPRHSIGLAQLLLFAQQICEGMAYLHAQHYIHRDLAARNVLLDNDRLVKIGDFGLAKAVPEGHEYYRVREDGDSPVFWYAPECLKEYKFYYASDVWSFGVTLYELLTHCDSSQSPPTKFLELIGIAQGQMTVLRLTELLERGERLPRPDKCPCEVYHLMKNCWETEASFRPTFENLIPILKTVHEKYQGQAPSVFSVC", "details": "n=1, read-out: Percent inhibition, TYK2(Kin.Dom.2)"}}, "note": "Like-named read-outs stand apart in the source and are kept apart here.", "data": [{"smiles": "Nc1ncc2c(-c3ccncc3)c[nH]c2n1", "note": "[Compound 11]", "values": [{"measurement": "inhibition at 10 µM", "setting": "CLK1; 10 μM, n = 1, read-out: percent inhibition CLK1", "result": "≥ 99", "unit": "%"}, {"measurement": "inhibition at 10 µM", "setting": "CLK1; 10 µM, n=1, kinase CLK1, read-out: Percent inhibition CLK1", "result": 99.2, "unit": "%"}, {"measurement": "inhibition at 10 µM", "setting": "CSNK1G1; 10 μM, n = 1, read-out: percent inhibition CSNK1G1", "result": "≥ 99", "unit": "%"}, {"measurement": "inhibition at 10 µM", "setting": "CSNK1G1; 10 µM, n=1, kinase CSNK1G1, read-out: Percent inhibition CSNK1G1", "result": 99.3, "unit": "%"}, {"measurement": "inhibition at 10 µM", "setting": "FLT1", "result": 0, "unit": "%"}, {"measurement": "inhibition at 10 µM", "setting": "KIT; 10 μM, n = 1, read-out: percent inhibition KIT", "result": "≥ 99", "unit": "%"}, {"measurement": "inhibition at 10 µM", "setting": "KIT; 10 µM, n=1, kinase KIT, read-out: Percent inhibition KIT", "result": 99.3, "unit": "%"}, {"measurement": "inhibition at 10 µM", "setting": "LKB1", "result": 80, "unit": "%"}, {"measurement": "inhibition at 10 µM", "setting": "PHKG1", "result": 0, "unit": "%"}, {"measurement": "inhibition at 10 µM", "setting": "PKAC-beta", "result": 0, "unit": "%"}, {"measurement": "inhibition at 10 µM", "setting": "PLK3", "result": 0, "unit": "%"}, {"measurement": "inhibition at 10 µM", "setting": "PRKCH", "result": 0, "unit": "%"}, {"measurement": "inhibition at 10 µM", "setting": "PRKG1", "result": 0, "unit": "%"}, {"measurement": "inhibition at 10 µM", "setting": "RIPK2", "result": 0, "unit": "%"}, {"measurement": "inhibition at 10 µM", "setting": "RPS6KA3(Kin.Dom.1)", "result": 0, "unit": "%"}, {"measurement": "inhibition at 10 µM", "setting": "RPS6KA6(Kin.Dom.1)", "result": 0, "unit": "%"}, {"measurement": "inhibition at 10 µM", "setting": "SYK", "result": 75.9, "unit": "%"}, {"measurement": "inhibition at 10 µM", "setting": "TRKB", "result": 0, "unit": "%"}, {"measurement": "inhibition at 10 µM", "setting": "TYK2(Kin.Dom.2)", "result": 0, "unit": "%"}]}]}
